Source: patent publication US9957270B2, “Fused pyrimidine-based hydroxamate derivatives” (Agency for Science, Technology and Research, priority 2014, dated 2018)

Legend:
MV-4-11 = details: read-out: In Vitro Cellular IC50 MV-4-11; Table 4; 72 h
[1] = biological target: HDAC (HeLa nuclear extracts); assay: HDAC enzyme assay, HeLa nuclear extracts; details: read-out: In Vitro Enzymatic IC50 HDAC (HeLa)
PC-3 = assay: Anti-proliferative assay (cellular IC50), PC-3; details: read-out: In Vitro Cellular IC50 PC-3; Table 4; 72 h
HepG2 xenograft = details: NCr nude mice, 150 mg/kg oral
[2] = Microsomal stability, rat liver microsomes; details: rat, microsomes, 0.75 h, 5 μM, pH 7.4
Description: (§1) GIBIO pooled human liver microsomes (HLM) (Cat # HMMCPL), mouse liver microsomes (MLM) (Cat # BCMCPL), and rat liver microsomes (RLM) (Cat # RTMCPL) were purchased from Life Technologies. […] Samples are incubated for 30, 45, or 60 min. Reaction is terminated with ice-cold acetonitrile 0.3% formic acid. Samples are subsequently centrifuged at 4° C. for 15 min at 20,000×g. The supernatant is analysed by LC-MS.
(§2) Compound in vitro metabolic stability was assayed using liver microsomes (LM) at 0.5 mg/mL of proteins, incubated for 30 min (mouse, MLM), 45 min (rat, RLM), 30 or 45 min (human, HLM). % of remaining parent compound was measured using LC-MS.

[3] = Microsomal stability, mouse liver microsomes; details: mouse, microsomes, 0.5 h, 5 μM, pH 7.4
Description: as §1, §2

NCI-H460 xenograft = details: CB17 scid mice, 150 mg/kg oral
[4] = test system: histone 3 (Lys 9) and α-tubulin acetylation (HDACs) in PC-3 cells; assay: Western blot, acetylation of histone 3 (Lys 9) and α-tubulin in PC-3 cells; type: cell-based, human; details: 24 h, 1 or 10 μM
Description: Proteins in cell lysates are resolved by SDS-PAGE and transferred to PVDF and probed with appropriate primary and secondary antibodies. […] Representative Western blot images are shown in FIG. 15 and analyzed results are presented by FIGS. 17 to 20.
PC-3 cells were treated with test compounds at the following concentrations (all contain 0.1% DMSO) for 24 h at 37° C., and then processed according to section of Western Blot Analysis.
The graph represents results from two Western Blot analyses. […] Vehicle DMSO (0.1%) was used as blank control, and its acH3 level was normalized to 1. Y Axis is expressed as Mean±SD if applicable.
Vehicle DMSO (0.1%) as blank control, and its acetylation level was normalized to 1. Y Axis is expressed as Mean±SD if applicable.

MV4-11 tumors = details: EX2 IV 50, IP 100, PO 150 mg/kg; EX78 IV 25, PO 100 mg/kg; Western blot of tumors
MV-4-11 cells [5] = assay: Caspase activity assay, MV-4-11 cells; type: cell-based, human; details: Homo sapiens, MV4-11, 24 h, read-out: EC50 induction of caspase activity
Description: Cells are cultivated and treated with test compounds in 96-well plates as described in the above Cell Culture and Anti-Proliferative Assays section. […] The incubation time can be extended up to overnight (18 h) if the Caspase activity is low. Staurosporine is used as positive control.
Y Axis is expressed as Mean±SD if applicable.

[6] = Microsomal stability, human liver microsomes; details: human, microsomes, 0.75 h, 5 μM, pH 7.4
Description: as §1, §2

HuH-7 xenograft = details: HuH-7, NCr nude mice, 150 mg/kg oral
MV-4-11 cells [7] = assay: Cell viability/cytotoxicity assay (CytoTox-Glo), MV-4-11 cells; type: cell-based, human; details: Homo sapiens, MV4-11, 48 h, read-out: cell death potency EC50
Description: Cells are cultivated and treated with test compounds in 96-well plates as described in the above Cell Culture and Anti-Proliferative Assays section, the content of dead cells and viable cells are measured using CytoTox-Glo™ Cytotoxicity Assay kit (Promega) per manufacture's protocol. Briefly, CytoTox-Glo™ Cytotoxicity Assay Reagent (48 μL/well) is added to the cells in 96-well plate and the luminescent signals are recorded using a BioTek Synergy H4 reader, then Lysis Reagent (48 μL/well) is added and the luminescent signals derived from both dead and viable cells are recorded. Viability can be calculated by subtracting the luminescent signal resulting from experimental cell death from total luminescent values. Staurosporine is used as positive control.
Fold of cell death of treated vs untreated was monitored at different time points. […] Y Axis is expressed as Mean±SD if applicable.

Compound | IC50 (MV-4-11) [nM] | IC50 [1] [nM] | IC50 (PC-3) [nM] | Tolerability (HepG2 xenograft) | Microsomal Stability RLM, % of remaining parent compound [2] [%] | Microsomal Stability MLM, % of remaining parent compound [3] [%] | Tolerability (NCI-H460 xenograft) | Hyperacetylation of histone 3 (Lys 9) and α-tubulin [4] | Hyperacetylation of H3 in MV4-11 tumors (MV4-11 tumors) | EC50 (MV-4-11 cells [5]) [nM] | Microsomal Stability HLM, % of remaining parent compound [6] [%] | Tolerability (HuH-7 xenograft) | maximum body weight loss vs vehicle group (HuH-7 xenograft) | EC50 (MV-4-11 cells [7]) [nM]
(N-hydroxy-7-(2-(3-(1- (hydroxyimino)ethyl)-4- methoxyphenyl)-6-morpholino-9H- purin-9-yl)heptanamide [compound 73] | 500 to 2000 | < 10 | 2000 to 10000 | – | – | – | – | – | – | – | – | – | – | –
O=C(CCCCCCn1cnc2c(N3CCOCC3)nc(-c3cccc(CO)c3)nc21)NO [compound 2, N-hydroxy-7-(2-(3-(hydroxymethyl)phenyl)-6-morpholino-9H-purin-9-yl)heptanamide] | – | – | – | well tolerated | 57 | 99 | well tolerated | the hyperacetylation effect is dose-dependent | hyperacetylation of H3 in MV4-11 tumors | 500 | 99 | well-tolerated | less than 5% | 69
